Assay results as given in publication PMC3923439, “Anti-inflammatory properties of a novel peptide interleukin 1 receptor antagonist” (Journal of Neuroinflammation, 2014).
Positions of bridges follow the written chain, without caps; N, C: chain ends. Chains are numbered I, II in the order given. No end group written: not given here.

How the values were obtained:
[1] = test system: Cerebellar granule neurons; experiment: Survival of cerebellar granule neurons induced to undergo apoptosis by low potassium; type: cell-based, rat; settings: 5 mM KCl, survival estimated 48 hours later
Protocol: (§1) Cerebellar granule neurons (CGNs) were prepared from 7-day-old Wistar rats (from Charles River Laboratories, Sulzfeld, Germany; or from Hygind Møllegård Erik Møllegaard Hansen, Ejby, Denmark) as previously described. Briefly, the cerebella were cleared of meninges and blood vessels, roughly homogenized by chopping and trypsinized. The cells were washed in the presence of DNAse I and soybean trypsin inhibitor (Sigma-Aldrich, St Louis, MO, USA), and cellular debris was pelleted by centrifugation. The fibroblastoid mouse cell line L929 (LVN; European Collection of Cell Cultures, Porton Down, UK) was routinely grown at 37°C with 5% CO2 in DMEM supplemented with 10% (vol/vol) FCS, 2 mM GlutaMAX, 100 U/ml penicillin and 100 μg/ml streptomycin.
(§2) Cerebellar granule neurons were plated at a density of 1 × 10^5 cells/cm^2 on poly-L-lysine-coated, eight-well Permanox Lab-Tek chamber slides (Nunc) in Neurobasal-A medium supplemented with 2% (vol/vol) B27 (Gibco BRL), 0.5% (vol/vol) GlutaMAX, 100 U/ml penicillin and 100 μg/ml streptomycin. The CGN survival assay was performed as previously described. The neurite outgrowth assay was also performed as previously described.
Figure 5 Effect of Ilantide and interleukin 1 receptor antagonist on survival of cerebellar granule neurons induced to undergo apoptosis. The neurons were allowed to differentiate for 7 days in a high-potassium (40 mM) medium before apoptosis was induced by changing to a low-potassium medium (5 mM). Survival was estimated 48 hours later. (A) The effect of insulin-like growth factor 1 (IGF-1), interleukin 1 receptor antagonist (IL-1Ra) and IL-1β on cerebellar granule neuron (CGN) apoptosis induced by 5 mM KCl. (B) The effect of Ilantide-m on CGN apoptosis induced by 5 mM KCl. […] The results from at least four independent experiments are expressed as mean ± SEM with untreated cultures induced to undergo apoptosis by 5 mM KCl set at 100%. *P < 0.05 and **P < 0.01 compared with untreated cultures induced to undergo apoptosis (one-way analysis of variance followed by Newman-Keuls post hoc test).

[2] = test system: AMJ2-C8 macrophages; experiment: TNF-α secretion from IL-1β-activated macrophages (L929 bioassay); type: cell-based, mouse; settings: 1.2 pM IL-1β, 24 hours; TNF-α by L929 survival with actinomycin D; hydrocortisone at 100 μM
Protocol: A murine alveolar macrophage cell line, AMJ2-C8 (American Type Culture Collection, Borås, Sweden), was routinely grown at 37°C with 5% CO2 in DMEM supplemented with 5% (vol/vol) FCS, 0.5% (v/v) 2-[4-(2-hydroxyethyl)piperazin-1-yl]ethanesulfonic acid (HEPES) (Gibco BRL), 2 mM GlutaMAX, 100 U/ml penicillin and 100 μg/ml streptomycin.
AMJ2-C8 macrophages were seeded into six-well multidishes at a density of 2.5 × 10^5 cells/well, and sIL-1RI, IL-1Ra or various concentrations of Ilantide were added to the cultures. Treatment with 100 μM hydrocortisone (Sigma-Aldrich, Brøndby, Denmark) was used as a positive control. After 10-minute incubation at 37°C, 1.2 pM IL-1β or IFN-γ (R&D Systems) was added to activate the macrophages. L929 cells were seeded onto a 96-well plate (Nunc, Roskilde, Denmark) at a density 0.2 × 10^2 cells/ml. Both cell cultures were incubated for 24 hours at 37°C. Conditioned medium from macrophages was collected and added to the L929 cell cultures together with actinomycin D (0.6 μg/well; Sigma-Aldrich). TNF-α is known to induce classic apoptosis in L929 cells in the presence of actinomycin D [12]. After 24-hour incubation at 37°C, 20 μl of 3-(4,5-dimethylthiazol-2-yl)-5-(3-carboxymethoxyphenyl)-2-(4-sulfophenyl)-2H-tetrazolium (Promega, Madison, WI, USA) were added to each well and incubated at 37°C in the dark for 45 minutes, then measured in an ELISA reader at 490 nm. To calculate the amount of TNF-α in the conditioned medium, fibroblasts were treated with standard concentrations of TNF-α (R&D Systems).

[3] = test system: double-Ig module (Ig1-Ig2) of NCAM; experiment: Surface plasmon resonance, negative control protein; type: binding; settings: SPR
Protocol: The binding analysis was performed using a Biacore 2000 instrument (GE Healthcare Life Sciences) that contained 150 mM NaCl as running buffer at 25°C with 10 mM sodium phosphate (pH 7.4). The flow rate was 5 μl/min during immobilization. Ilantide peptide, IL-1β or IL-1Ra was immobilized on a CM4 sensor chip according to the manufacturer’s instructions, after which the recombinant ectodomain of IL-1RI (R&D Systems) was injected. The neural cell adhesion molecule (NCAM) immunoglobulin modules 1 and 2 (Ig1 and Ig2) were used as a negative control protein [9]. The data were analyzed using nonlinear curve-fitting with the manufacturer’s software.

[4] = test system: Cerebellar granule neurons; experiment: Neurite outgrowth from cerebellar granule neurons; type: cell-based, rat; settings: 7-day-old CGNs grown on fibroblast cells, 24 hours
Protocol: as §1, §2
Figure 6 Effect of Ilantide on neurite outgrowth from cerebellar granule neurons. Cerebellar granule neuron cultures were treated with interleukin 1 receptor antagonist (IL-1Ra) (A), soluble interleukin 1 receptor type I (sIL-1RI) (B), Ilantide-t (C) or IL-1β (D) for 24 hours. The cultures were fixed and immunostained with rabbit anti-rat growth-associated protein 43 (anti-GAP-43) primary antibodies and then with secondary Alexa Fluor 488 goat anti-rabbit antibodies. (E) Effect of IL-1β on neurite outgrowth induced by IL-1Ra. (F) Effect of IL-1β on neurite outgrowth induced by Ilantide-t. The results from three to four independent experiments are expressed as percentage ± SEM with untreated controls set at 100%, corresponding to an average neurite length of 19.3 ± 4.1 μm. *P < 0.05 and **P < 0.01 compared with untreated controls (A to D) or cultures treated with either IL-1Ra or Ilantide alone (E and F) by one-way analysis of variance followed by the Newman-Keuls post hoc test).

Substance	CGN survival after potassium withdrawal [1]	Inhibition of IL-1β-induced TNF-α secretion in macrophages [2]	Binding to double-Ig module of NCAM (negative control) [3]	Neurite outgrowth from CGNs [4]
I: SGRKSSKMQAKK-NH2 / II: SGRKSSKMQAK / III: SGRKSSKMQA / IV: SGRKSSKMQA (amide I:11-IV:C, I:12-II:C, II:11-III:C; C-terminus assumed) [Ilantide-t]	concentration-dependently promoted CGN survival	significantly inhibited	no significant binding	significantly induced neurite outgrowth
IL-1Ra: recombinant interleukin 1 receptor antagonist purchased from R&D Systems	concentration-dependently promoted CGN survival	significantly inhibited	no significant binding	significantly induced neurite outgrowth
